Earlier results as cited in patent publication US11529374B2, “Extract and formulation including extract” (NIPPON ZOKI PHARMACEUTICAL CO., LTD., priority 2012, dated 2022).

Conditions: particularly an effect for non-inflammatory pain diseases such as neuropathic pain disease; Japanese Patent No. 4005115, CN 101600438B

CC(=O)N[C@H]1[C@H]([C@H](O)[C@H](O)CO)OC(O)(C(=O)O)C[C@@H]1O (stereo partly shown) [N-acetylneuraminic acid]
Analgesic action: has an analgesic action
